Measured values from publication PMC7037546, “High Cell Selectivity and Bactericidal Mechanism of Symmetric Peptides Centered on D-Pro–Gly Pairs” (International Journal of Molecular Sciences, 2020).
≈ marks a conversion by molar mass, not a printed value. No end group written: not given here.

What was measured:
[1] = test system: Escherichia coli ATCC25922; test: microbe, parasite or virus in culture; settings: ATCC25922, 16 h
Experimental: (§1) The antimicrobial activity of the designed peptides was examined using the micro-dilution method described previously. The bacteria were cultured for 16 h in MHB at 37 °C, and the microbial suspension was diluted to a final concentration of 10^5 colony-forming units (CFU)/mL. Then, 50 µL of MHB containing different concentrations peptides (0.25–256 µM) was mixed with 50 µL of bacterial solution, and the mixture was added to a 96-well plate. […] The assays were performed three times.

[2] = test system: Gram-negative bacteria; settings: 16 h
Experimental: as §1

[3] = test system: S. aureus ATCC29213; settings: ATCC29213, 16 h
Experimental: as §1

[4] = test system: Salmonella Pullorum NCTC5776; settings: NCTC5776, 16 h
Experimental: as §1

[5] = test system: E. coli K88; settings: micro-dilution in MHB, 10^5 CFU/mL, 16 h, OD 492 nm, performed three times
Experimental: as §1

[6] = test system: Staphylococcus aureus ATCC25923; settings: ATCC25923, 16 h
Experimental: as §1

[7] = test system: Pseudomonas aeruginosa ATCC27853; settings: ATCC27853, 16 h
Experimental: as §1

[8] = test system: Enterococcus faecalis ATCC29212; settings: ATCC29212, 16 h
Experimental: as §1

[9] = test system: methicillin-resistant S. aureus ATCC43300; settings: ATCC43300, 16 h
Experimental: as §1

[10] = test system: Klebsiella pneumonia CMCC46117; settings: CMCC46117, 16 h
Experimental: as §1

[11] = test system: RAW 264.7 cells; test: Cytotoxicity, CCK-8 assay; type: cell-based, murine; settings: 64 μM peptide, 16 h, CCK-8, OD 450 nm
Experimental: (§2) The cytotoxicity was detected according to a CCK-8 assay as described previously. Briefly, RAW 264.7 and HEK293T cells were placed into 96-well plates at a density of 1.0–2.0 × 10^5, and then cultured for 16 h under conditions of 5% CO2. Then, two-fold diluted peptides in DMEM were added to the plates. After 16 h of culturing, CCK-8 (10%, v/v) was put into each well containing cell culture, and mixtures were cultured for 2 h. The cytotoxicity assay was examined by measuring the OD of the mixtures at 450 nm (Microplate reader, TECAN GENios F129004, Tecan, Salzburg, Austria). The assays were performed three times.

[12] = test system: HEK293T cells; test: Cytotoxicity, CCK-8 assay; type: cell-based, human; settings: 64 μM peptide, 16 h, CCK-8, OD 450 nm
Experimental: as §2

[13] = test system: Gram-positive bacteria; test: Geometric mean of MICs and therapeutic index, Gram (+); type: cell-based; settings: geometric mean over the Gram-positive strains of Table 2; 256 μM used when no activity at 128 μM
Experimental: as §1

[14] = test system: E. coli ATCC25922; type: cell-based, Escherichia coli; settings: for MIC after pH treatment, pH 4 / MIC after pH treatment, pH 6 / MIC after pH treatment, pH 8 / MIC after pH treatment, pH 10: ATCC25922, 1 h; for MIC after temperature treatment, 0 °C / MIC after temperature treatment, 37 °C / MIC after temperature treatment, 100 °C / MIC in the presence of FeCl3 / MIC in the presence of KCl / MIC in the presence of MgCl2 / MIC in the presence of NH4Cl / MIC in the presence of NaCl / MIC in the presence of ZnCl2 / MIC, Control / MIC, Control (pH 7): ATCC25922, 16 h
Experimental: as §1
The salt, temperature, and pH sensitivities of designed peptides were determined by MIC assay as described previously. For the salt sensitivity assay, peptides were diluted in deionized water containing different salts, and mixed with E. coli ATCC25922 (10^5 CFU/mL). The final physiological concentrations of different salts were as follows: 150 mM NaCl, 4.5 mM KCl, 6 μM NH4Cl, 1 mM MgCl2, 8 μM ZnCl2, and 4 μM FeCl3. For temperature sensitivity, peptides were cooled on ice for 10 min, and incubated at 37 °C and 100 °C for 30 min. For pH sensitivity, peptides were treated with different pH for 1 h. Briefly, peptides were diluted in deionized water, and the pH of the solution was adjusted to 4.0, 6.0, 8.0, and 10.0 with HCl or NaOH. The subsequent steps were the same as for the MIC measurements. These tests were performed three times.

Row | Molecule | MIC ([1]; Escherichia coli) | GM (geometric mean of MICs), Gram (−) [2] | MIC [3] | MIC [4] | MIC [5] | MIC [6] | MIC [7] | MIC [8] | MIC [9] | MIC [10] | cell survival rate [11] | cell survival rate [12] | GM (geometric mean of MICs), Gram (+) [13] | MIC [1] | MIC after pH treatment, pH 4 [14] | MIC after pH treatment, pH 6 [14] | MIC after pH treatment, pH 8 [14] | MIC after pH treatment, pH 10 [14] | MIC after temperature treatment, 0 °C [14] | MIC after temperature treatment, 37 °C [14] | other results
1 | O=C(N[C@H](CO)[C@H](O)c1ccc([N+](=O)[O-])cc1)C(Cl)Cl [chloramphenicol, reference compound] | 8 µM (≈ 2.59 µg/mL) |  |  |  |  |  |  |  |  |  |  |  |  |  |  |  |  |  |  |  | 
2 | O=C(O)c1cn(C2CC2)c2cc(N3CCNCC3)c(F)cc2c1=O [ciprofloxacin, reference compound] | 8 µM (≈ 2.65 µg/mL) |  |  |  |  |  |  |  |  |  |  |  |  |  |  |  |  |  |  |  | 
3 | [H]/N=C(/N)N[C@H]1[C@H](O)[C@@H](O)[C@H](O[C@@H]2O[C@@H](C)[C@](O)(C=O)[C@H]2O[C@@H]2O[C@@H](CO)[C@H](O)[C@@H](O)[C@@H]2NC)[C@@H](N/C(N)=N\[H])[C@@H]1O [streptomycin, reference compound] | 2 µM (≈ 1.16 µg/mL) |  |  |  |  |  |  |  |  |  |  |  |  |  |  |  |  |  |  |  | 
4 | FFRFFRRGGRRFFRFF-NH2 [FRGG] |  | 16 µM | 16 µM | 16 µM | 16 µM | 32 µM | 32 µM | 32 µM | 32 µM | 16 µM | 66% | 76% | 26.9 µM | 8 µM | 32 µM | 8 µM | 8 µM | 32 µM | 8 µM | 8 µM | MIC after temperature treatment, 100 °C [14]: 8 µM; MIC in the presence of FeCl3 [14]: 8 µM; MIC in the presence of KCl [14]: 8 µM; MIC in the presence of MgCl2 [14]: 16 µM; MIC in the presence of NH4Cl [14]: 8 µM; MIC in the presence of NaCl [14]: 64 µM; MIC in the presence of ZnCl2 [14]: 16 µM; MIC, Control [14]: 8 µM; MIC, Control (pH 7) [14]: 8 µM
5 | IIRIIRRGGRRIIRII-NH2 [IRGG] |  | 21.1 µM | >128 µM | 32 µM | 16 µM | >128 µM | 32 µM | >128 µM | >128 µM | 32 µM | 95% | 96% | 256 µM | 8 µM | 16 µM | 8 µM | 8 µM | 16 µM | 8 µM | 8 µM | MIC after temperature treatment, 100 °C [14]: 8 µM; MIC in the presence of FeCl3 [14]: 8 µM; MIC in the presence of KCl [14]: 8 µM; MIC in the presence of MgCl2 [14]: 16 µM; MIC in the presence of NH4Cl [14]: 8 µM; MIC in the presence of NaCl [14]: 64 µM; MIC in the presence of ZnCl2 [14]: 16 µM; MIC, Control [14]: 8 µM; MIC, Control (pH 7) [14]: 8 µM
